# Results from patent US20240335395A1, “COMPOSITIONS AND METHODS FOR PREVENTING AND/OR TREATING DISEASE ASSOCIATED WITH IL-23 EXPRESSION” (ALLSPIM, priority 2021, published 2024).
# Legend:
# [1] = system: laser-induced choroidal neovascularization (CNV); test: Laser-induced CNV in rats, fluorescein angiography leakage grading; assay type: in vivo, rat; conditions: 14 days, intravitreous injection
# Experimental: Animals. All experiments were performed in accordance with the European Communities Council Directive 86/609/EEC and approved by local ethical committees (#2541-2015110210279792 v3). Six- to eight-week-old male Long Evans rats from the Janvier Breeding Center (Le Genest-Saint-Isle, France) were used to create a rat model of choroidal neovascularization (CNV) used as a model of human wet macular degeneration.
# Laser-induced CNV. After anesthesia and dilation of the pupils, coverslips were positioned on the cornea as a contact glass. For rats, six or eight burns were performed 2 to 3 optic disc diameters away from the optic nerve with an Argon laser (532 nm) mounted on a slit lamp (175 mW, 0.1 s and 50 μm). Both eyes of animals received laser induction. The presence of a bubble witnessed the rupture of Bruch's membrane and confirmed a successful laser impact.
# Treatments. After laser photocoagulation, rats were divided into 3 treatment groups: —Intravitreous injection (IVT) of 2,4-D (identified as “new treatment”, New T), —IVT of vehicle (PBS), —IVT of triamcinolone acetonide (Kenacort® 40 mg/ml; TA) (n=12 rats per group). The IVT consisted of 5 μl injected with a 31G needle mounted on a micro-thin (100 μl) syringe posterior to the limbus, avoiding the lens. IVT was performed immediately after laser had been performed. Animals were sacrificed at 7 days (n=6 per group- and at 16 days (n=6 per group).
# Fluorescein angiography (FA). FA was performed 14 days after laser induction. […] Early and late phase angiograms were recorded 1-3 and 5-7 min respectively after fluorescein injection. […] Angiographic scores were established by 2 blinded observers according to the following criteria: grade 0, no hyper-fluorescence; grade 1, slight hyper-fluorescence with no increase in intensity nor in size; grade 2, hyper-fluorescence increasing in intensity but not in size; grade 3, hyper-fluorescence increasing both in intensity and size; grade 4, hyper-fluorescence size increase more than 2-diameter of the initial laser burn.
# [2] = system: cell surface markers CD80, Ly6C, CD206, CXCR4, CCR2; test: Endometriosis mouse model, cell surface marker expression of peritoneal immune cells (flow cytometry); assay type: in vivo; conditions: 50 mg/kg/day, 5 times a week, 6 weeks
# Experimental: Experimental design. Balb/C female mice (10 weeks old) were habituated for 3 days to take a jelly containing (group EDT+2,4D) or not (groups No EDT and EDT+Vehicle) the compound. Surgical implantation of endometrial tissue from syngenic female in peritoneum, was performed at day 0 for groups EDT+Vehicle and EDT+2,4D. […] The vehicle or treatment was then given 5 times a week (50 mg/kg/day) during 6 weeks. Mice were then sacrificed and the peritoneal inflammation was assessed. All the details of the protocol are depicted in FIG. 27. Cytokine measurement in cell-free peritoneal lavage. After mice were euthanized, 5 mL of PBS was injected into the peritoneal cavity and the diluted peritoneal fluid containing the cells was then retrieved. The cells were pelleted by centrifugation at 500×g 4° C. and the supernatant (cell-free peritoneal fluid) was frozen at −80° C. for subsequent cytokine concentration measurement by ELISA. Cytokine concentration was assessed by ELISA kit in the peritoneal fluid (ThermoFisher, Mouse IL-1β, IL6 and TNFalpha Uncoated ELISA). […] The optical density was read with the Clariostar Plus Microplate Reader (BMG LABTECH), through the Clario software. Concentrations were calculated from a standard curve according to the manufacturer's protocol. Phenotypic study of immune cells from the peritoneal cavity assessed by flow cytometry. The pelleted peritoneal cells were resuspended in PBS-2% FBS and counted. One million cells were stained with the following fluorophore-conjugated antibodies purchased from BioLegend: CD45 BV510, CD11b APC-Cy7, CD11c PE, F4/80 BV711, CD80 PE Cy5, CD206 AF647, Ly-6C, PE-Cy7, CCR2 BV786 et CXCR4 BV421, CD45R/B220 PE Texas-Red, CD3E FITC, NK1.1 BV605 and CD69 PerCP-Cy5.5, Zombie-UV. Cells were incubated 20 min in the dark at 4° C., washed with PBS-2% FBS, and were fixed with paraformaldehyde 4% in 5 mL round-bottom polystyrene tubes (Falcon™ 352054). Compensation was adjusted with Ultracomp beads (ThermoFisher). All the antibodies were diluted at 1/200. All data were collected on LSR Fortessa flow cytometer (BD Bioscience, USA) and analyzed with FlowJo software. Statistical analysis. Outlier values farther than 2 standard deviation from the mean were not taken into account. Kruskal Wallis non-parametric test followed by Dunn's multiple comparisons test were performed for cytokines, One-Way Anova with Tukey's multiple comparisons test for flow cytometry data. *p<0.05, **p<0.01, ***p<0.001.
structure (smiles),measurement,setting,value
"COc1cc(O)c(OC)c(O)c1C(=O)/C=C/c1ccccc1 [2,4-D, 2′,4′-dihydroxy-3′,6′-dimethoxychalcone]",percentage of impact graded 0-1,[1],68%
same,percentage of impact in grade 3-4 (intense leakage),[1],13%
same,grading score of impacts compared to vehicle,[1]; Dunn's multiple comparison,significantly reduced
same,CCR2,[2],significantly reduced
same,CXCR4,[2],tended to decrease
same,Ly6C pro-inflammatory marker,[2],tended to decrease
same,anti-inflammatory CD206 marker,[2],did not reduce
